According to patent US11655242B2, “Glucagon-like peptide1 receptor agonists” (Eli Lilly and Company, priority 2019, dated 2023):
Like-named read-outs stand apart in the source and are kept apart here.

Legend:
[1] = tested on: mice expressing the human GLP-1R; experiment: In Vivo Intraperitoneal Glucose Tolerance Test in Human GLP-1R Knock-in Mice; details: Mus musculus; read-out: Blood glucose lowering ED50
Description: In Vivo Intraperitoneal Glucose Tolerance Test in Human GLP-1R Knock-in Mice
The potency of the exemplified compounds to lower the concentration of blood glucose in vivo is determined using mice expressing the human GLP-1R (NCBI accession number NP_002053) from the mouse Glp-1r genetic locus (Jun, L. S., et al., PLoS One. 2014 9:e93746). Overnight fasted mice are orally administered the test compound solubilized in 10% Kolliphor® (HS15) in Polyetheylene Glycol 400 (PEG400). One hour post-dose, the animals are administered glucose by intraperitoneal injection (2 g/kg), and blood glucose levels are measured intermittingly over the next two hours using glucometers. A dose range of the test compound is delivered, and area under the curve calculations for each dose group are determined and fit to a four-parameter logistic model for calculating in vivo potency as an ED50 with a 95% confidence interval.

human GLP-1R = human GLP-1R (Homo sapiens (Human), UniProt P43220); experiment: Human GLP-1 Receptor HEK293 Cell cAMP Assay; details: for EC50: EC50 (nM) ± SEM (n), intracellular cAMP response, relative EC50; for Emax: percent of maximal response with human GLP-1(7-36)NH2
Description: After a 30 min incubation at 37° C., the resulting increase in intracellular cAMP is quantitatively determined using the CisBio cAMP Dynamic 2 HTRF Assay Kit (62AM4PEJ). Briefly, cAMP levels within the cell are detected by adding the cAMP-d2 conjugate in cell lysis buffer (10 μL) followed by the antibody anti-cAMP-Eu^3+-Cryptate, also in cell lysis buffer (10 μL). […] The amount of cAMP generated (nM) in each well is converted to a percent of the maximal response observed with human GLP-1(7-36)NH2. A relative EC50 value and percent top (Emax) are derived by non-linear regression analysis using the percent maximal response vs. the concentration of compound added, fitted to a four-parameter logistic equation.

PDE10A1 = PDE10A1 (Homo sapiens (Human), UniProt Q9Y233); experiment: Phosphodiesterase 10 (PDE10) Enzyme Activity Assay; format: biochemical; details: read-out: IC50 (μM), n = 1, inhibition of PDE10A1; SPA, [3H]-cGMP substrate, maximal compound concentration 10 μM
Description: Phosphodiesterase 10 (PDE10) Enzyme Activity Assay
To generate phosphodiesterase 10A1 (PDE10A1) protein, a full-length PDE10A1 clone corresponding to GenBank ID AAD32595.1 is cloned into pFastBac1 (Invitrogen). The PDE10A1 protein with a C-terminal FLAG-tag is expressed by baculoviral infection of insect cells and purified using anti-FLAG M2-agarose (Sigma) and size exclusion chromatography on a Superdex 200 column (GE Healthcare) and stored at −80° C. in small aliquots (20 mM Tris-HCl, Ph 7.5, 150 mM NaCl, 10% Glycerol).
PDE10A1 enzyme activities are measured with a yittrium silicate based scintillation proximity assay (SPA) that detects radioactive nucleotide monophosphates but not cyclic monophosphates. The assay buffer is composed of 50 mM Tris-HCl pH 7.5, 8 mM MgCl2, 3.4 mM EDTA, and 0.1% BSA (Sigma). Assays are conducted in 384 well plates (3706, Corning) in a total volume of 50 μl: comprised of 24 μl PDE10A1 enzyme, 1 μl test compound and 25 μl of cyclic nucleotide. Test compounds are diluted in pure DMSO using ten-point concentration response curves with a 3-fold dilution factor and 1 μl is acoustically dispensed into assay plates using the Echo555 (LabCyte). 24 μl PDE10A1 protein is incubated with 1 μl compound for 30 min before the reaction is started by the addition of [8-^3H]-cGMP substrate (6.5 Ci/mmol, Perkin Elmer). Final concentration of components is […], 80 nM (3H-cGMP), and 2% DMSO in assay buffer. Maximal compound concentration in the reaction mixture is 10 μM. Reactions are incubated for 60 min at RT before quenching and the addition of […] SPA beads (RPNQ0150, Perkin Elmer). Bead bound radioactivity (product) is quantified 12 h later with a Microbeta counter (Perkin Elmer). Data is normalized to % inhibition and IC50 values are calculated using the 4 parameter logistic equation as described (Campbell R. M.; Dymshitz, J.; Eastwood, B. J.; et al. “Data Standardization for Results Management.” In: Sittampalam, G. S.; Grossman, A.; Brimacombe, K.; et al.; eds. Assay Guidance Manual. Bethesda (Md.): Eli Lilly & Company and the National Center for Advancing Translational Sciences; 2004.).

[2] = Non-Human Primate (NHP) Pharmacokinetics; format: in vivo; details: cynomolgus monkey, plasma, IV 0.5 mg/kg, fasted male cynomolgus monkeys; for Vd: steady-state, read-out: Volume of distribution
Description: Non-Human Primate (NHP) Pharmacokinetics:
The test compound is administered to fasted male cynomolgus monkeys intravenously (IV) at 0.5 mg/kg (using a dose volume of 1 mL/kg). Serial blood samples are collected at 0.08, 0.25, 0.5, 1, 2, 4, 8, 12, and 24 hours post dose for IV bolus. After treatment with an EDTA […], plasma is obtained by centrifugation and stored at −70° C. until analysis by LC-MS/MS. Test article concentration is determined in plasma. Noncompartmental analysis is used to calculate plasma clearance and steady-state volume of distribution.

hERG K+ channel = hERG K+ channel (Homo sapiens (Human), UniProt Q12809); experiment: Human hERG K+ Channel Affinity Radioligand Binding Assay; details: pH 7.4, probe [3H]dofetilide, 3 nM, read-out: Percent inhibition (%) at 100 μM compound concentration, n = 1
Description: Human hERG K^+ Channel Affinity Radioligand Binding Assay
The affinity of compounds for the human hERG K^+ channel in transfected HEK-293 cells is evaluated in a radioligand binding assay as described herein. Cell membrane homogenates (about […]) are incubated for 60 min at 22° C. with 3 nM [^3H]dofetilide in the absence or presence of the test compound in a buffer containing 50 mM Tris-HCl (pH 7.4), 10 mM KCl and 1 mM MgCl2. The assay is carried out in a 96-well plate format with a volume of 200 μL, containing a maximum of 1% DMSO from initial solubilization of test compound. Following incubation, the samples are filtered rapidly under vacuum through glass fiber filters (GF/B, Packard) presoaked with 0.3% PEI and rinsed several times with ice-cold 50 mM Tris-HCl, 10 mM KCl and 1 mM MgCl2 using a 96-sample cell harvester (Unifilter, Packard). The filters are dried and then counted for radioactivity in a scintillation counter (Topcount, Packard) using a scintillation cocktail (Microscint 0, Packard).

[3] = HEK293 cell line with 104 fmol/mg expression density of GLP-1R
[4] = HEK293 cell line with 581 fmol/mg expression density of GLP-1R
[5] = HEK293, read-out: Emax (%) ± SEM (n), HEK293 cell line with 104 fmol/mg expression density of GLP-1R
[6] = HEK293, read-out: Emax (%) ± SEM (n), HEK293 cell line with 581 fmol/mg expression density of GLP-1R

Sequence of PDE10A1 (Q9Y233 other isoform, or with tags, fused parts or gaps): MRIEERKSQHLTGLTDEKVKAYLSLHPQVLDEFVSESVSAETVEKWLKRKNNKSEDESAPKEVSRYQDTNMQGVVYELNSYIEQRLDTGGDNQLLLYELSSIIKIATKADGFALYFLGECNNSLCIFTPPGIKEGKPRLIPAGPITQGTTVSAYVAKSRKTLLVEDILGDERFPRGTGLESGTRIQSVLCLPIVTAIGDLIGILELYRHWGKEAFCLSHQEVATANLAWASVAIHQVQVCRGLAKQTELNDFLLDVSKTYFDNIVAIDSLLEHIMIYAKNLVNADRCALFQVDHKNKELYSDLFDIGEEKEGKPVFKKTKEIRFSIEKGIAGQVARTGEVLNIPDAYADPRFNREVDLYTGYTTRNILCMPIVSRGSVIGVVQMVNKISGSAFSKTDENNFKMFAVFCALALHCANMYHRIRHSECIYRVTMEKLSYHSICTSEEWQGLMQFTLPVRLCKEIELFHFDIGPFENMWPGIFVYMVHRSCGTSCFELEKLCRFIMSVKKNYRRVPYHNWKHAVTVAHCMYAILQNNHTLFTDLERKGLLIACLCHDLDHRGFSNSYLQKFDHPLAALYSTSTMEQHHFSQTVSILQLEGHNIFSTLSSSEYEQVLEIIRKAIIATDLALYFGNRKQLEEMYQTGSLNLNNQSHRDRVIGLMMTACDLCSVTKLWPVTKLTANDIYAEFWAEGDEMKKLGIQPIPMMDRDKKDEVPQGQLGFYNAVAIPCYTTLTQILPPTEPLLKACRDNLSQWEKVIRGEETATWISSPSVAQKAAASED
Sequence of hERG K+ channel (Q12809 whole entry): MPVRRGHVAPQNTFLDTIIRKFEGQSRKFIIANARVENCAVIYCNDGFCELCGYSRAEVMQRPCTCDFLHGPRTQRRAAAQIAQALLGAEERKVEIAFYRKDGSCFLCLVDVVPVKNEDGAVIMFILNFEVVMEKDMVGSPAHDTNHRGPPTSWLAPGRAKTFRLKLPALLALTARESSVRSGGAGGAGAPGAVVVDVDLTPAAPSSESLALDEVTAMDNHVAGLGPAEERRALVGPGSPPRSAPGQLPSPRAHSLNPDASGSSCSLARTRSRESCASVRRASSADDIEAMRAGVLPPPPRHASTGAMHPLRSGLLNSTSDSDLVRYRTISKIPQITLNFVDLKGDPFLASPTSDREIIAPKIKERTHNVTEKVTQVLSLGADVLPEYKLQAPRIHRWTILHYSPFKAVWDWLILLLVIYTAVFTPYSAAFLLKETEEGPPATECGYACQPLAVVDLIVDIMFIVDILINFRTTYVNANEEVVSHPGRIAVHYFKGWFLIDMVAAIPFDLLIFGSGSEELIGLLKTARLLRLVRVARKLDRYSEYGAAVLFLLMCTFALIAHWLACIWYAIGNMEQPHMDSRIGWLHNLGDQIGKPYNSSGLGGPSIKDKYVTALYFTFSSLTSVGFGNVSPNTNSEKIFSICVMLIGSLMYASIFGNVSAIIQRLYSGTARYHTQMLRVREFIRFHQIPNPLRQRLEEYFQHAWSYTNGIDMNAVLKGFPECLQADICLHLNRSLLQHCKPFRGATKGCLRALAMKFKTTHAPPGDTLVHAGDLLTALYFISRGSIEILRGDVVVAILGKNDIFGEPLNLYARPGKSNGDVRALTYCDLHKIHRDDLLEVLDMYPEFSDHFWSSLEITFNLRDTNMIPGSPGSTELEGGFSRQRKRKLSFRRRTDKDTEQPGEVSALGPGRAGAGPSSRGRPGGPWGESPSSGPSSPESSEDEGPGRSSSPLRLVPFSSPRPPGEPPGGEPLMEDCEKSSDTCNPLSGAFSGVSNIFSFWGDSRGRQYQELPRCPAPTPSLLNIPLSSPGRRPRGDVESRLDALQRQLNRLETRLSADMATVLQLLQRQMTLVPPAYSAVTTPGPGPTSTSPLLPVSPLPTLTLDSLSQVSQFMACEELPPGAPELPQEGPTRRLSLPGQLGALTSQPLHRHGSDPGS
Sequence of human GLP-1R (P43220 24-463): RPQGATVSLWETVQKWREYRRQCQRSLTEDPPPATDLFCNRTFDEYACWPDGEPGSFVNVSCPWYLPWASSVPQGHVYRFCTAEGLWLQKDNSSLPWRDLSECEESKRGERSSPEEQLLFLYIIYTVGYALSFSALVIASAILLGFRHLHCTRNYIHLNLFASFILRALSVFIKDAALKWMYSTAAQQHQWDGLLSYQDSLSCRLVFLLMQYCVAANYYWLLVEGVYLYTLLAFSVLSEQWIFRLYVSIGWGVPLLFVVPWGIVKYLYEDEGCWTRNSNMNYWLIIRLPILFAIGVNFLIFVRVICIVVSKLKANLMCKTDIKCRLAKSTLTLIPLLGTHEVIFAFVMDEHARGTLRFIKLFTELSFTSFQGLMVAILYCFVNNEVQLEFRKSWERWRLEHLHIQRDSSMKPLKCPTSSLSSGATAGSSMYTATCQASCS

Compound	EC50 (human GLP-1R; [3])	EC50 (human GLP-1R; [4])	Emax (human GLP-1R; [5])	Emax (human GLP-1R; [6])	IC50 (PDE10A1)	clearance [2]	Vd [2]	ED50 [1]	inhibition at 60 min, 100 µM (hERG K+ channel)
Cc1cc(Cc2nc3ccc(C(=O)O)cc3n2C[C@@H]2CCO2)ccc1-c1cccc(OCc2ccc(C#N)cc2F)n1 [Example 1, 2-[[4-[6-[(4-Cyano-2-fluoro-phenyl)methoxy]-2-pyridyl]-3-methyl-phenyl]methyl]-3-[[(2S)-oxetan-2-yl]methyl]benzimidazole-5-carboxylic Acid]	20 ± 3.25 nM	9.33 ± 1.36 nM	71.4 ± 2.26%	99.5 ± 2.53%	> 10 µM	13 mL/min/kg	1.2 L/kg	0.09 mg/kg	0%
N#Cc1ccc(COc2cccc(-c3cc(F)c(Cc4nc5ccc(C(=O)O)cc5n4C[C@@H]4CCO4)c(F)c3)n2)c(F)c1 [Example 4, 2-[[4-[6-[(4-Cyano-2-fluoro-phenyl)methoxy]-2-pyridyl]-2,6-difluoro-phenyl]methyl]-3-[(2S)-oxetan-2-ylmethyl]benzimidazole-5-carboxylic Acid]	9.59 ± 2.36 nM	3.99 ± 0.378 nM	78.3 ± 5.1%	99.2 ± 4%	5.41 µM				

The next lines start with results.

EC50 (human GLP-1R; [3])	EC50 (human GLP-1R; [4])	Emax (human GLP-1R; [5])	Emax (human GLP-1R; [6])	IC50 (PDE10A1)	clearance [2]	Vd [2]	Compound	ED50 [1]	inhibition at 60 min, 100 µM (hERG K+ channel)
3.97 ± 0.61 nM	1.14 ± 0.315 nM	79.2 ± 3.2%	104 ± 4.35%	7.43 µM	11 mL/min/kg	1.1 L/kg	Cc1cc(Cc2nc3ccc(C(=O)O)cc3n2C[C@@H]2CCO2)c(F)cc1-c1cccc(OCc2ccc(C#N)cc2F)n1 [Example 2, 2-[[4-[6-[(4-Cyano-2-fluoro-phenyl)methoxy]-2-pyridyl]-2-fluoro-5-methyl-phenyl]methyl]-3-[[(2S)-oxetan-2-yl]methyl]benzimidazole-5-carboxylic Acid]	0.07 mg/kg	54%
				> 10 µM	6 mL/min/kg	1.1 L/kg	N#Cc1ccc(COc2cccc(-c3ccc(Cc4nc5ccc(C(=O)O)cc5n4C[C@@H]4CCO4)c(F)c3)n2)c(F)c1 [Example 3, 2-[[4-[6-[(4-Cyano-2-fluoro-phenyl)methoxy]-2-pyridyl]-2-fluoro-phenyl]methyl]-3-[(2S)-oxetan-2-ylmethyl]benzimidazole-5-carboxylic Acid]	0.06 mg/kg	37%
23.6 ± 5.43 nM	6.45 ± 0.934 nM	76.7 ± 3.88%	105 ± 2.43%				Cc1c(-c2cccc(OCc3ccc(C#N)cc3F)n2)ccc(Cc2nc3ccc(C(=O)O)cc3n2C[C@@H]2CCO2)c1F [Example 5, 2-[[4-[6-[(4-Cyano-2-fluoro-phenyl)methoxy]-2-pyridyl]-2-fluoro-3-methyl-phenyl]methyl]-3-[[(2S)-oxetan-2-yl]methyl]benzimidazole-5-carboxylic Acid]		
